From PubChem BioAssay AID1963976 (Molecular Pharmacology Branch, DTP, NCI, 2024)

System: 435261-313-R-J1-PDC tumor spheroid viability
Test: Anticancer human tumor 435261-313-R-J1-PDC patient-derived colon adenocarcinoma cell line growth inhibition [PI3K]
Details: spheroids with HUVEC and MSC; for IC50: curve of first compound; for viability, T/C: stronger effect = lower value
Method in brief: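 Tumor cells grown as multi-cell spheroids with HUVEC endothelial cells and MSC fibroblast-like stroma were treated with targeted agents combined with inavolisib, alpelisib, duvelisib or copanlisib. Doses fell in half-log steps from near clinical Cmax, else from 10 microM. Viability was measured.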

[1] = second compound 0.0316 µM, first compound 0.0316 µM
[2] = second compound 0.0316 µM, first compound 0.1 µM
[3] = second compound 0.0316 µM, first compound 0.316 µM
[4] = second compound 0.0316 µM, first compound 1 µM
[5] = second compound 0.0316 µM, first compound 3.16 µM
[6] = second compound 0.0316 µM, first compound 10 µM
[7] = second compound 0.1 µM, first compound 0.0316 µM
[8] = second compound 0.1 µM, first compound 0.1 µM
[9] = second compound 0.1 µM, first compound 0.316 µM
[10] = second compound 0.1 µM, first compound 1 µM
[11] = second compound 0.1 µM, first compound 3.16 µM
[12] = second compound 0.1 µM, first compound 10 µM
[13] = second compound 0.316 µM, first compound 0.0316 µM
[14] = second compound 0.316 µM, first compound 0.1 µM
[15] = second compound 0.316 µM, first compound 0.316 µM
[16] = second compound 0.316 µM, first compound 1 µM
[17] = second compound 0.316 µM, first compound 3.16 µM
[18] = second compound 0.316 µM, first compound 10 µM
[19] = second compound 1 µM, first compound 0.0316 µM
[20] = second compound 1 µM, first compound 0.1 µM
[21] = second compound 1 µM, first compound 0.316 µM
[22] = second compound 1 µM, first compound 1 µM
[23] = second compound 1 µM, first compound 3.16 µM
[24] = second compound 1 µM, first compound 10 µM
[25] = second compound 3.16 µM, first compound 0.0316 µM
[26] = second compound 3.16 µM, first compound 0.1 µM
[27] = second compound 3.16 µM, first compound 0.316 µM
[28] = second compound 3.16 µM, first compound 1 µM
[29] = second compound 3.16 µM, first compound 3.16 µM
[30] = second compound 3.16 µM, first compound 10 µM
[31] = second compound 10 µM, first compound 0.0316 µM
[32] = second compound 10 µM, first compound 0.1 µM
[33] = second compound 10 µM, first compound 0.316 µM
[34] = second compound 10 µM, first compound 1 µM
[35] = second compound 10 µM, first compound 3.16 µM
[36] = second compound 10 µM, first compound 10 µM
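Further: spheroids exposed to compounds for 7 days.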

C#Cc1c(F)ccc2cc(O)cc(-c3ncc4c(N5CC6CCC(C5)N6)nc(OCC56CCCN5CC(F)C6)nc4c3F)c12 (stereo not drawn) + CC(Nc1ncnc2nc[nH]c12)c1cc2cccc(Cl)c2c(=O)n1-c1ccccc1 showed an IC50 (second compound 0.0316 µM) of 6.85 µM, an IC50 (second compound 0.1 µM) greater than 10 µM and an IC50 (second compound 0.316 µM) of 7.21 µM. It also gave an IC50 (second compound 1 µM) of 5.49 µM, an IC50 (second compound 3.16 µM) of 4.51 µM and an IC50 (second compound 10 µM) of 0.319 µM. For the same compound, the viability, T/C [1] was 78.7%, the viability, T/C [2] was 100% and the viability, T/C [3] was 98.3%. It also gave a viability, T/C [4] of 89.3%, a viability, T/C [5] of 81.9% and a viability, T/C [6] of 34.5%. For the same compound, the viability, T/C [7] was 97.8%, the viability, T/C [8] was 109% and the viability, T/C [9] was 72.2%. For the same compound, the viability, T/C [10] was 82%, the viability, T/C [11] was 68.2% and the viability, T/C [12] was 56%. For the same compound, the viability, T/C [13] was 89%, the viability, T/C [14] was 85.3% and the viability, T/C [15] was 79.8%. For the same compound, the viability, T/C [16] was 105%, the viability, T/C [17] was 103% and the viability, T/C [18] was 33.2%. The viability, T/C [19] was 94.9%, the viability, T/C [20] was 70.4% and the viability, T/C [21] was 82.3%. The viability, T/C [22] was 103%, the viability, T/C [23] was 67% and the viability, T/C [24] was 31.4%. The viability, T/C [25] was 62%, the viability, T/C [26] was 66.2% and the viability, T/C [27] was 43.3%. For the same compound, the viability, T/C [28] was 90.6%, the viability, T/C [29] was 50.1% and the viability, T/C [30] was 32.7%. For the same compound, the viability, T/C [31] was 56.5%, the viability, T/C [32] was 46.9% and the viability, T/C [33] was 52.3%. The viability, T/C [34] was 34.9%, the viability, T/C [35] was 18.8% and the viability, T/C [36] was 13.7%.

Work on C=CC(=O)N1CCN(c2nc(=O)n(-c3c(C)ccnc3C(C)C)c3nc(-c4c(O)cccc4F)c(F)cc23)C(C)C1 (stereo not drawn) + CC(Nc1ncnc2nc[nH]c12)c1cc2cccc(Cl)c2c(=O)n1-c1ccccc1 yielded an IC50 (second compound 0.0316 µM) greater than 10 µM, an IC50 (second compound 0.1 µM) greater than 10 µM and an IC50 (second compound 0.316 µM) greater than 10 µM. The IC50 (second compound 1 µM) was greater than 10 µM, the IC50 (second compound 3.16 µM) was greater than 10 µM and the IC50 (second compound 10 µM) was greater than 10 µM. The viability, T/C [1] was 67.3%, the viability, T/C [2] was 84.8% and the viability, T/C [3] was 103%. It also gave a viability, T/C [4] of 117%, a viability, T/C [5] of 116% and a viability, T/C [6] of 103%. For the same compound, the viability, T/C [7] was 78.4%, the viability, T/C [8] was 79.9% and the viability, T/C [9] was 103%. For the same compound, the viability, T/C [10] was 84.3%, the viability, T/C [11] was 109% and the viability, T/C [12] was 103%. The viability, T/C [13] was 92%, the viability, T/C [14] was 95% and the viability, T/C [15] was 85.4%. It also gave a viability, T/C [16] of 94.1%, a viability, T/C [17] of 122% and a viability, T/C [18] of 108%. The viability, T/C [19] was 76.3%, the viability, T/C [20] was 77% and the viability, T/C [21] was 102%. The viability, T/C [22] was 91.9%, the viability, T/C [23] was 130% and the viability, T/C [24] was 109%. The viability, T/C [25] was 53.7%, the viability, T/C [26] was 68.8% and the viability, T/C [27] was 89.2%. For the same compound, the viability, T/C [28] was 106%, the viability, T/C [29] was 87.9% and the viability, T/C [30] was 79.5%. The viability, T/C [31] was 49.3%, the viability, T/C [32] was 49.6% and the viability, T/C [33] was 54.6%. For the same compound, the viability, T/C [34] was 55.1%, the viability, T/C [35] was 74.9% and the viability, T/C [36] was 66.4%.

Compound CC(Cn1ccc(-c2ccc(C#N)c(Cl)c2)n1)NC(=O)c1cc(C(C)O)[nH]n1 (stereo not drawn) + CC(Nc1ncnc2nc[nH]c12)c1cc2cccc(Cl)c2c(=O)n1-c1ccccc1 has an IC50 (second compound 0.0316 µM) greater than 10 µM, an IC50 (second compound 0.1 µM) greater than 10 µM and an IC50 (second compound 0.316 µM) greater than 10 µM. For the same compound, the IC50 (second compound 1 µM) was greater than 10 µM, the IC50 (second compound 3.16 µM) was greater than 10 µM and the IC50 (second compound 10 µM) was greater than 10 µM. The viability, T/C [1] was 101%, the viability, T/C [2] was 96.2% and the viability, T/C [3] was 107%. For the same compound, the viability, T/C [4] was 75.8%, the viability, T/C [5] was 101% and the viability, T/C [6] was 100%. The viability, T/C [7] was 105%, the viability, T/C [8] was 95.9% and the viability, T/C [9] was 90.9%. The viability, T/C [10] was 103%, the viability, T/C [11] was 115% and the viability, T/C [12] was 76.1%. For the same compound, the viability, T/C [13] was 82.7%, the viability, T/C [14] was 90.4% and the viability, T/C [15] was 90.5%. The viability, T/C [16] was 80.5%, the viability, T/C [17] was 103% and the viability, T/C [18] was 81.6%. It also gave a viability, T/C [19] of 81.1%, a viability, T/C [20] of 99.1% and a viability, T/C [21] of 70.9%. For the same compound, the viability, T/C [22] was 85.9%, the viability, T/C [23] was 73.5% and the viability, T/C [24] was 76.6%. The viability, T/C [25] was 77.8%, the viability, T/C [26] was 58.4% and the viability, T/C [27] was 77.2%. For the same compound, the viability, T/C [28] was 85.5%, the viability, T/C [29] was 65.1% and the viability, T/C [30] was 62.1%. For the same compound, the viability, T/C [31] was 58.5%, the viability, T/C [32] was 41.7% and the viability, T/C [33] was 48.5%. The viability, T/C [34] was 74.7%, the viability, T/C [35] was 72.4% and the viability, T/C [36] was 42%.

Work on CC1(C)CCC(Nc2ncc(C(F)(F)F)c(-c3c[nH]c4c(P(C)(C)=O)c(C#N)ccc34)n2)CN1 (stereo not drawn) + CC(Nc1ncnc2nc[nH]c12)c1cc2cccc(Cl)c2c(=O)n1-c1ccccc1 yielded an IC50 (second compound 0.0316 µM) of 2.55 µM, an IC50 (second compound 0.1 µM) of 1.92 µM and an IC50 (second compound 0.316 µM) of 1.47 µM. For the same compound, the IC50 (second compound 1 µM) was 1.55 µM, the IC50 (second compound 3.16 µM) was less than 0.0316 µM and the IC50 (second compound 10 µM) was less than 0.0316 µM. The viability, T/C [1] was 61.1%, the viability, T/C [2] was 52.4% and the viability, T/C [3] was 61.4%. For the same compound, the viability, T/C [4] was 61.4%, the viability, T/C [5] was 48% and the viability, T/C [6] was 1.46%. The viability, T/C [7] was 70.5%, the viability, T/C [8] was 60.4% and the viability, T/C [9] was 53.4%. For the same compound, the viability, T/C [10] was 60.6%, the viability, T/C [11] was 44.4% and the viability, T/C [12] was 2.25%. The viability, T/C [13] was 56.9%, the viability, T/C [14] was 57.8% and the viability, T/C [15] was 58.2%. For the same compound, the viability, T/C [16] was 50.9%, the viability, T/C [17] was 43.5% and the viability, T/C [18] was 0.98%. For the same compound, the viability, T/C [19] was 50.5%, the viability, T/C [20] was 52.1% and the viability, T/C [21] was 57.2%. For the same compound, the viability, T/C [22] was 57%, the viability, T/C [23] was 44.3% and the viability, T/C [24] was 1.03%. For the same compound, the viability, T/C [25] was 37.3%, the viability, T/C [26] was 42.8% and the viability, T/C [27] was 44%. It also gave a viability, T/C [28] of 47.8%, a viability, T/C [29] of 36.9% and a viability, T/C [30] of 0.77%. It also gave a viability, T/C [31] of 33.6%, a viability, T/C [32] of 27.4% and a viability, T/C [33] of 27.7%. It also gave a viability, T/C [34] of 31.1%, a viability, T/C [35] of 22.3% and a viability, T/C [36] of 1.14%.
